Assay results reported in patent US11034696B2, “Compounds for inhibiting LRRK2 kinase activity” (GLAXOSMITHKLINE INTELLECTUAL PROPERTY DEVELOPMENT LIMITED, priority 2017, dated 2021).
Where “and” joins values, the source holds several entries; their conditions need not be identical. Equal entries are not always repeated.

Each compound was assayed against T1, LRRK2 (Homo sapiens, UniProt Q5S007) (assay: Recombinant cellular LRRK2 AlphaScreen assay (LRRK2 Ser935 phosphorylation in SH-SY5Y cells over-expressing recombinant full length LRRK2)). Settings: 60 minutes compound incubation, read-out: pIC50 in the recombinant cellular LRRK2 AlphaScreen assay (converted).
T1 construct: A BacMam virus expressing full length recombinant LRRK2 was purchased from Invitrogen; host or cells: SH-SY5Y human neuroblastoma cells transduced with BacMam LRRK2 virus
T1 sequence (Q5S007 whole entry): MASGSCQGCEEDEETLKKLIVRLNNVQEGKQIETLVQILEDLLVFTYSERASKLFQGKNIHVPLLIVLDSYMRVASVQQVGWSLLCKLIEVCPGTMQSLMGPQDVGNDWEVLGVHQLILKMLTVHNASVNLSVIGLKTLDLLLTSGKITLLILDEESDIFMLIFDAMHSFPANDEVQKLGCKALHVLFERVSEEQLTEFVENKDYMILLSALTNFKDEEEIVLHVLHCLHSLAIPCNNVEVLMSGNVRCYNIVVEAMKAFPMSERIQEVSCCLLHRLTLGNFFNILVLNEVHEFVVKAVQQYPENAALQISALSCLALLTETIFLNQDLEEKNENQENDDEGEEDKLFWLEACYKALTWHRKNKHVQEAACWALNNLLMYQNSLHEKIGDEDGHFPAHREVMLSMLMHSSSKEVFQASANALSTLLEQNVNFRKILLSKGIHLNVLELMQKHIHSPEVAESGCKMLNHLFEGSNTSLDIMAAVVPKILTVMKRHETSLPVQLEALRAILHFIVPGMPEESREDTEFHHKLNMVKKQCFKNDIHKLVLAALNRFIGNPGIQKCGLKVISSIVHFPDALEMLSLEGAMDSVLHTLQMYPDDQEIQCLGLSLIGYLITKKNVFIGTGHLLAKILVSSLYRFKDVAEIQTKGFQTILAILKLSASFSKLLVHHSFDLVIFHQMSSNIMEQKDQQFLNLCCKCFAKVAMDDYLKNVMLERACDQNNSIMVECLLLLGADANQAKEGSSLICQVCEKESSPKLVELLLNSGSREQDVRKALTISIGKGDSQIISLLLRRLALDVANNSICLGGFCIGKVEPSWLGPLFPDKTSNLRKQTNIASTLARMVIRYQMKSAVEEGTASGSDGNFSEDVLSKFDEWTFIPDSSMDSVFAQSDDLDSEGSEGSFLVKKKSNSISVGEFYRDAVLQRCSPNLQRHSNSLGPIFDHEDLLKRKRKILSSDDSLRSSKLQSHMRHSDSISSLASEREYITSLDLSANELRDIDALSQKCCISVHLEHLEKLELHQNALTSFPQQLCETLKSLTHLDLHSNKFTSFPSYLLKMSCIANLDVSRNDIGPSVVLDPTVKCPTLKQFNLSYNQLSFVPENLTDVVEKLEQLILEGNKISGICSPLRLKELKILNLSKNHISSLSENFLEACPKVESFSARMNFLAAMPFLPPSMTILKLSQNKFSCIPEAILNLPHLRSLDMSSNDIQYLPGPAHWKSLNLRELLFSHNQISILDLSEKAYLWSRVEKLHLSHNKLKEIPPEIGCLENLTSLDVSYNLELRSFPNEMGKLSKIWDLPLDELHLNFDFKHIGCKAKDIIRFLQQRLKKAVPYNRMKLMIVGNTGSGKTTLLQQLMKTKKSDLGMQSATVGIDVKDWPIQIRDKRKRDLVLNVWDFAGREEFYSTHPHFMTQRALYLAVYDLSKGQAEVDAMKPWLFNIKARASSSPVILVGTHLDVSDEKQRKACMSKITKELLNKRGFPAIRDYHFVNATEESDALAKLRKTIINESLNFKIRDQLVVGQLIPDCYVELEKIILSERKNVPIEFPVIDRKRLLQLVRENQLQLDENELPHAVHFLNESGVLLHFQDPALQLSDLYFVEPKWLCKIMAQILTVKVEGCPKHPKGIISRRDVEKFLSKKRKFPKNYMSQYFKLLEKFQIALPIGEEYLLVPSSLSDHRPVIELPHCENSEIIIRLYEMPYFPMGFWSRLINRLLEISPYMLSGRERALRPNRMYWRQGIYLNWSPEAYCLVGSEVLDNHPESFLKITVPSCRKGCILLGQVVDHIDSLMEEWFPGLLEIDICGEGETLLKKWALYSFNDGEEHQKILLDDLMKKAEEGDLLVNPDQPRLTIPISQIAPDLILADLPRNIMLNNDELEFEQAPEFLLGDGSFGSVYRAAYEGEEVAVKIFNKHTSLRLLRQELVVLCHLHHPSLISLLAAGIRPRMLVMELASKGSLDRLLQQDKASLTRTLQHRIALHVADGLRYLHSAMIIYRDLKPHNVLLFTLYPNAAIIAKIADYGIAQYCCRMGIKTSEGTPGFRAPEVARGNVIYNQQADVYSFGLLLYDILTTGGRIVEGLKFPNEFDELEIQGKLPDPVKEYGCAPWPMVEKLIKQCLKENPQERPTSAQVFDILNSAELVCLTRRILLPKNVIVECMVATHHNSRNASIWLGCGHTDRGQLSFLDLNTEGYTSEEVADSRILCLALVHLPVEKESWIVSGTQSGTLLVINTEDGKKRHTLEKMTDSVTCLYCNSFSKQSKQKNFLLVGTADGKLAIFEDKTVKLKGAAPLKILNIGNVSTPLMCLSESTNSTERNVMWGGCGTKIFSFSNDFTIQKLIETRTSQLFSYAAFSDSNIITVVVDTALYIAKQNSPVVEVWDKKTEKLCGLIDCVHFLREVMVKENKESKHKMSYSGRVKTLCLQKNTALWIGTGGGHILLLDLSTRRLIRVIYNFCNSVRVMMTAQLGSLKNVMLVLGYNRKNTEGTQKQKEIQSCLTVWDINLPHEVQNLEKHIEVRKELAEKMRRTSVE
Format: cell-based
Text: 2) Recombinant Cellular LRRK2 AlphaScreen Assay
To determine the activity of compounds against LRRK2 kinase activity in cells, the observed LRRK2 kinase-dependent modulation of LRRK2 Ser 935 phosphorylation (Dzamko et al., 2010, Biochem. J. 430: 405-413) was utilized to develop a quantitative 384 well plate-based immunoassay of LRRK2 Ser935 phosphorylation in the human neuroblastoma cell line SH-SY5Y, engineered to over-express recombinant full length LRRK2 protein.
A BacMam virus expressing full length recombinant LRRK2 was purchased from Invitrogen and amplified by inoculation of SF-9 cells at MOI 0.3 for 4-5 days in Sf-900 III SFM medium supplemented with 3% fetal bovine serum. Infected cell cultures were then centrifuged at 2000 g for 20 minutes, viral supernatant titer determined by anti-gp64 plaque assay and stored at 4° C.
Affinity-purified anti-phospho LRRK2 Ser935 sheep polyclonal antibody (Dzamko et al., 2010, Biochem. J. 430: 405-413) was biotinylated by standard methods (PerkinElmer). Anti-LRRK2 rabbit polyclonal antibody was purchased from Novus Biologicals. AlphaScreen Protein A IgG Kit (including acceptor and donor beads) was purchased from Perkin Elmer. […]
Serial dilutions of test compounds were prepared in Opti-MEM reduced serum media (Invitrogen) and 5.6 ul transferred from compound plate to cell assay plate to achieve a top final assay concentration of 10 uM. […] 10 ul of antibody/acceptor bead mix [(1/1000 biotinylated-pS935 LRRK2 antibody, 1/1000 total-LRRK2 antibody, 1/100 Acceptor beads in AlphaScreen detection buffer (25 mM Hepes (pH 7.4), 0.5% Triton X-100, 1 mg/ml Dextran 500 and 0.1% BSA)] was then added to each well and plates incubated for 2 hours at ambient temperature in the dark. 10 μl of donor beads solution (1/33.3 donor beads in AlphaScreen detection buffer) was then added to each well. Following incubation for a further 2 hours at ambient temperature in the dark, plates were read on an EnVision™ plate reader at emission 520-620 nm with excitation 680 nm. […]

Question: How did the IC50 turn out when COc1nc(N2CCN3CCC[C@H]3C2)cc(-n2ncc3cc(C)c(C4CCN(C5COC5)CC4F)cc32)n1 (single isomer, unassigned) [Example A-2] was run?
Answer: The IC50 was no more than 100 nM.

Question: With COc1nc(N2CCN3CCC[C@@H]3C2)cc(-n2ncc3cc(C)c(C4CCN(C5COC5)CC4F)cc32)n1 (single isomer, unassigned) [Example A-1] as the compound, how does the IC50 read?
Answer: Its IC50 is no more than 100 nM.

Question: For COc1nc(N2CCN3CCOCC3C2)cc(-n2ncc3cc(C)c(C4CCN(C5COC5)CC4)cc32)n1 (single isomer, unassigned) [Example A-13, 8-(2-methoxy-6-(5-methyl-6-(1-(oxetan-3-yl)piperidin-4-yl)-1H-indazol-1-yl)pyrimidin-4-yl)octahydropyrazino[2,1-c][1,4]oxazine], which IC50 is on record?
Answer: Its IC50 is 7.94 nM and ≤ 100 nM.
